Earlier results on one compound are cited in patent publication US11116769B2, “Tadalafil free base-containing film dosage form containing polyethylene glycol-based polymer and/or vinyl pyrrolidone-based polymer as dispersion stabilizer” (CTC BIO, INC., priority 2013, dated 2021).

Structures are written as SMILES.

With `CN1CC(=O)N2[C@H](c3ccc4c(c3)OCO4)c3[nH]c4ccccc4c3C[C@@H]2C1=O` [Tadalafil, (6R-trans)-6-(1,3-benzodioxol-5-yl)-2,3,6,7,12,12a-hexahydro-2-methyl-pyrazino[1′,2′:1,6]pyrido[3,4-b]indole-1,4-dione], the “solubility in organic solvents” value (some organic solvents such as methanol, ethanol and acetone) was “slightly soluble”. Also, the “solubility in water” value (water) is reported as “practically insoluble”. The water solubility entry (water at 25° C., from U.S. Pat. No. 6,841,167) was “about 2 μg per 1 milliliter (mL)”.
